What all share (assay): NCI anticancer screen, dose series, 48 h
The test system of experiment [1] is 786-0 renal.
For experiment [2], the system named is A549 NSCLC.
Experiment [3] relates to HCT-116 colon.
Experiment [4] relates to MOLT-4 leukemia.
In experiment [5] the test system is NCI-H460 lung.
In experiment [6] the test system is OVCAR-4 ovarian.
The subject of experiment [7] is OVCAR-5 ovarian.
The test system of experiment [8] is SK-MEL-5 melanoma.
Experiment [9] concerns SK-OV-3 ovarian.
In experiment [10] the test system is SW-620 colon.
The subject of experiment [11] is UACC-62 melanoma.

SMILES strings stand for the structures.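 In this assay, cells in 96-well plates receive the compound at five concentrations for 48 hours. Endpoints are linearly interpolated between the surrounding concentrations. At the TGI there is no net growth.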

As for `CN(C)CCNC(=O)c1cccc2c(NCCN(C)C)c3ccccc3nc12`, the TGI in experiment [1] came out at 6.65 µM; in experiment [2], 6.05 µM; in experiment [3] it was 3.9 µM; in [4] it was 6.29 µM; in experiment [5] it was 3.91 µM; in [6], 8.68 µM. Moreover, the TGI in experiment [7] was 11.1 µM; in [8], 13.6 µM; in experiment [9] it was 40.2 µM; in experiment [10] it was above 23.4 µM; in experiment [11] it was 9.19 µM.

In the case of `Nc1nc(Cl)c(N)c(NCC2(CO)CC(OCc3ccccc3)C2)n1` (configuration not stated), the TGI in [1], in [2], in experiment [3], in experiment [4], in [5] and in [6] was above 100 µM in each case. Moreover, the TGI in experiment [7], in experiment [8], in experiment [9], in experiment [10] and in experiment [11] was above 100 µM each time.

Regarding `BrCCCCCOc1ccc(-c2c3ccccc3c(-c3ccc(OCCCCCBr)cc3)c3ccccc23)cc1`, the TGI in [1], in [2], in experiment [3], in [4], in [5] and in [6] was above 100 µM throughout. In addition, the TGI in experiment [7], in experiment [8], in experiment [9], in [10] and in [11] was above 100 µM in each case.

`O=C1NC(SSC2=NNC3(C(=O)N2)c2ccccc2-c2ccccc23)=NNC12c1ccccc1-c1ccccc12`: the TGI in experiment [1], in experiment [2], in [3], in experiment [4], in [5] and in experiment [6] was above 10 µM each time. For the same molecule, the TGI in experiment [7], in [8], in experiment [9], in experiment [10] and in experiment [11] was above 10 µM each time.

Regarding `COC(=O)CCC(=O)NC1=C(Nc2ccc(OC)cc2)C(=O)c2ccccc2C1=O`, the TGI turned out to be 76.2 µM in experiment [1]; 29.7 µM in experiment [2]; 25 µM in [3]; 65.8 µM in [4]; 21.1 µM in experiment [5]; 24.7 µM in experiment [6]. Besides, the TGI was found to be 31 µM in experiment [7]; 3.57 µM in experiment [8]; 88.1 µM in [9]; 29.7 µM in experiment [10]; 7.67 µM in [11].

As for `O=C(NCCC1([N+](=O)[O-])CCN(C(=O)c2ccccc2)CC1)c1ccccc1`, the TGI in [1], in [2], in [3], in experiment [4], in [5] and in experiment [6] was above 100 µM each time. The TGI in experiment [7], in experiment [8], in [9], in experiment [10] and in [11] was above 100 µM throughout.

With `CC[C@]12C=CCN3CC[C@@]4(c5cc(Br)c(OC)cc5N(C)[C@H]4[C@@](O)(C(=O)NN)[C@@H]1O)[C@@H]32`, the TGI in experiment [1], in [2], in [3], in experiment [4], in [5] and in experiment [6] was above 100 µM throughout. In addition, the TGI in experiment [7], in experiment [8], in experiment [9], in experiment [10] and in [11] was above 100 µM throughout.

For `Cc1ccc(S(=O)(=O)N/N=C(\c2nc3ccc(Cl)cc3[nH]c2=O)C(O)c2cccc([N+](=O)[O-])c2)cc1` (configuration not stated), the TGI in experiment [1], in experiment [2], in [3], in [4], in experiment [5] and in [6] was above 100 µM in each case. Besides, the TGI in [7], in experiment [8], in experiment [9], in experiment [10] and in experiment [11] was above 100 µM throughout.

Consider `CN(C)c1ccc(C(=C(c2ccc(N(C)C)cc2)c2ccc(N(C)C)cc2)c2ccc(N(C)C)cc2)cc1`, for which the TGI is 23.7 µM in experiment [1]; 31.4 µM in experiment [2]; 42.1 µM in [3]; 41 µM in [4]; 32.3 µM in [5]; above 100 µM in [6]. Moreover, the TGI in experiment [7] was above 100 µM; in experiment [8], 31.8 µM; in experiment [9] it was 41.8 µM; in experiment [10], 20.8 µM; in [11], 36.1 µM.

For `Cc1c(Cl)nc(Nc2nc3ccccc3[nH]2)nc1Cl`, the TGI is above 100 µM in experiment [1]; above 100 µM in [2]; above 100 µM in experiment [3]; above 100 µM in [4]; above 100 µM in [5]; 76.5 µM in experiment [6]. In addition, the TGI in experiment [7], in experiment [8], in experiment [9], in experiment [10] and in experiment [11] was above 100 µM throughout.

For `CCCCc1ccc(Nc2nc3c(ncn3C3CC(O)C(CN=[N+]=[N-])O3)c(=O)[nH]2)cc1` (configuration not stated), the TGI in [1], in experiment [2], in [3], in experiment [4], in experiment [5] and in experiment [6] was above 100 µM in each case. The TGI in experiment [7], in experiment [8], in [9], in [10] and in [11] was above 100 µM each time.

Take `CCOC(=O)c1ccc(Nc2c3c(nc4ccccc24)CCCC3)cc1`: the TGI in experiment [1], in [2], in [3], in experiment [4], in [5] and in [6] was above 100 µM in each case. For the same molecule, the TGI in experiment [7], in [8], in experiment [9], in experiment [10] and in experiment [11] was above 100 µM throughout.

(Values after PubChem BioAssay (NCI).)
